In ChEMBL document CHEMBL3880419, “Modulators of sperm hypermobility and uses thereof” (2013):
Calls of active or inactive are those of the source. The rule behind the calls is not given here.

Legend:
[1] = biological target: T1, Cation channel sperm-associated protein 1 (Mus musculus) (UniProt Q91ZR5); assay: Inhibition of wild type CatSper1 channel in mouse corpus epididymal sperm cells assessed decrease in Ca2+ current by whole cell patch clamp assay
T1 sequence (whole entry): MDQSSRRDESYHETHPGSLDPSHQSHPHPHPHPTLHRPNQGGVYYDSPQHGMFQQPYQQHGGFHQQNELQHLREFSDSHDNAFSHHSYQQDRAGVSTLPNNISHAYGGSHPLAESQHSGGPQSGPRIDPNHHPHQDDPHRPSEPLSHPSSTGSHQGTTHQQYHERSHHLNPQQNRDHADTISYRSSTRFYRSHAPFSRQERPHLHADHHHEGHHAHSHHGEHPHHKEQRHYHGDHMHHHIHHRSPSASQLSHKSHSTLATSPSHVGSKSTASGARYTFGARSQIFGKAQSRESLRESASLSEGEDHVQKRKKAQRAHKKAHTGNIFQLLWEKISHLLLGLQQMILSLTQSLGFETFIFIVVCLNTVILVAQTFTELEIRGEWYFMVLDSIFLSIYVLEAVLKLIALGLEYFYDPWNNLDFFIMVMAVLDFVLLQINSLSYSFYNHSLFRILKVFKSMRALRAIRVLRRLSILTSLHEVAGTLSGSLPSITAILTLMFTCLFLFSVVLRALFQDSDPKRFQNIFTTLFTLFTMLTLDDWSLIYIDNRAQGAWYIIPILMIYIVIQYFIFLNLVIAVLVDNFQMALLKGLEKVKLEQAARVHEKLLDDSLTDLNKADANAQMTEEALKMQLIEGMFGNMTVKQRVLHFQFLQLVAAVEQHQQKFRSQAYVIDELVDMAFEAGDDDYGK

[2] = biological target: T2, Cation channel sperm-associated protein 1 (Homo sapiens) (UniProt Q8NEC5); assay: Inhibition of CatSper1 channel in human sperm assessed as decrease in sperm hyperactivity after 5 mins by computer-assisted sperm analysis
T2 sequence (whole entry): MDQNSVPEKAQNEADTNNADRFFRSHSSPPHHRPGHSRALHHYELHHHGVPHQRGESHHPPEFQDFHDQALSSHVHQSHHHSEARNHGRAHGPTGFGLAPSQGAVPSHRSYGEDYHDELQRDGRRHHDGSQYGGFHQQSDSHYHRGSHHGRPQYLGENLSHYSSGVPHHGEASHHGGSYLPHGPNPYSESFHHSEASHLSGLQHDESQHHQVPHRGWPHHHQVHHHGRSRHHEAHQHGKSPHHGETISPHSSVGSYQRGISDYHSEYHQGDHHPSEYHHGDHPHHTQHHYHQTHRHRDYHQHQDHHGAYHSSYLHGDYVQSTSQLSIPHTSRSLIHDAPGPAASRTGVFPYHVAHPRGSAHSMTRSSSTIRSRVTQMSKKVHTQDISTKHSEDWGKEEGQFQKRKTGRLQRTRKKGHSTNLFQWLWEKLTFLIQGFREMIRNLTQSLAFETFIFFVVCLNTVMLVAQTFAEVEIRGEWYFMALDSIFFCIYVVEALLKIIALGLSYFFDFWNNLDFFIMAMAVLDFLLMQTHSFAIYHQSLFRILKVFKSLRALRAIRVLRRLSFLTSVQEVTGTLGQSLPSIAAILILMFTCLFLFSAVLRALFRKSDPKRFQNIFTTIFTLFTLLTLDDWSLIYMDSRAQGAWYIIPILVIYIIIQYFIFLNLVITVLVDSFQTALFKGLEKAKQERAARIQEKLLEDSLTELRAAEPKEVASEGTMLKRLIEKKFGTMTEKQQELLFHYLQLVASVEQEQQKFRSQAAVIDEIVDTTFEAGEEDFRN

[3] = biological target: T1, Cation channel sperm-associated protein 1 (Mus musculus); assay: Inhibition of CatSper1 channel […] in 129/SvJ x C57BL/6J mouse cauda epididymal sperm assessed as reduction in sperm hyperactivity after 5 mins by single sperm motility assay
Mus musculus [4] = assay: In vivo inhibition of fertility in C57BL/6 male mouse administered in diet after 7 to 9 days; assay type: functional, organism-based
Mus musculus [5] = assay: In vivo inhibition of fertility in C57BL/6 female mouse administered in diet treated for 5 weeks followed by breeding of female mouse with nontreated age-matched male mouse for 4 days; assay type: functional, organism-based
[6] = Toxicity in C57BL/6 male mouse assessed as effect on reproductive hormone levels administered in diet measured after prolonged compound treatment; conditions: in vivo, po
[7] = Toxicity in C57BL/6 female mouse assessed as effect on reproductive hormone levels administered in diet measured after prolonged compound treatment; conditions: in vivo, po
[8] = Toxicity in C57BL/6 male mouse assessed as effect on serum biochemistry administered in diet measured after prolonged compound treatment; conditions: in vivo, po
[9] = Toxicity in C57BL/6 female mouse assessed as effect on serum biochemistry administered in diet measured after prolonged compound treatment; conditions: in vivo, po
[10] = Toxicity in C57BL/6 male mouse assessed as effect on animal behavior administered in diet measured after prolonged compound treatment; conditions: in vivo, po
[11] = Toxicity in C57BL/6 female mouse assessed as effect on animal behavior administered in diet measured after prolonged compound treatment; conditions: in vivo, po
Mus musculus [12] = assay: Reversible inhibition of fertility in C57BL/6 female mouse administered in diet for 2 months; assay type: functional; conditions: TDE = time-dependent effect
Mus musculus [13] = assay: Reversible inhibition of fertility in C57BL/6 male mouse administered in diet for 2 months; assay type: functional; conditions: TDE = time-dependent effect
[14] = biological target: T2, Cation channel sperm-associated protein 1 (Homo sapiens); assay: Inhibition of CatSper1 channel in human sperm assessed as sperm hyperactivity at 1 uM after 5 mins by computer-assisted sperm analysis (reference value: 10.5%); design: scale not given: the % may be the effect or the level left
[15] = biological target: T2, Cation channel sperm-associated protein 1 (Homo sapiens); assay: Inhibition of CatSper1 channel in human sperm assessed as sperm hyperactivity at 50 uM after 5 mins by computer-assisted sperm analysis (reference value: 10.5%); design: scale not given: the % may be the effect or the level left
[16] = biological target: T2, Cation channel sperm-associated protein 1 (Homo sapiens); assay: Inhibition of CatSper1 channel in human sperm assessed as sperm motility at 1 uM after 5 mins by computer-assisted sperm analysis (reference value: 68%); design: scale not given: the % may be the effect or the level left
[17] = biological target: T2, Cation channel sperm-associated protein 1 (Homo sapiens); assay: Inhibition of CatSper1 channel in human sperm assessed as sperm motility at 50 uM after 5 mins by computer-assisted sperm analysis (reference value: 68%); design: scale not given: the % may be the effect or the level left
[18] = biological target: T1, Cation channel sperm-associated protein 1 (Mus musculus); assay: Inhibition of CatSper1 currents in mouse spermatozoa isolated from corpus epididymis at 20 uM by whole cell patch clamp assay

Structure (SMILES)	inhibition [1]	inhibition [2]	inhibition [3]	Activity [14] [%]	Activity [15] [%]	Activity [16] [%]	Activity [17] [%]	inhibition [18]	inhibition (Mus musculus [4])	inhibition (Mus musculus [5])	Activity [6]	Activity [7]	Activity [8]	Activity [9]	Activity [10]	Activity [11]	inhibition (Mus musculus [12])	inhibition (Mus musculus [13])
O=C(c1ccccc1)c1no[n+]([O-])c1C(=O)c1ccccc1	Active	–	Dose-dependent effect	–	–	–	–	–	Dose-dependent effect	Active	Non-Toxic	Non-Toxic	Non-Toxic	Non-Toxic	Non-Toxic	Non-Toxic	Tde	Tde
Cc1conc1C(=O)c1no[n+]([O-])c1C(=O)c1nocc1C	Active	Active	Dose-dependent effect	–	–	–	–	–	Dose-dependent effect	Active	Non-Toxic	Non-Toxic	Non-Toxic	Non-Toxic	Non-Toxic	Non-Toxic	Tde	Tde
O=C(c1cccs1)c1no[n+]([O-])c1C(=O)c1cccs1	Active	–	Dose-dependent effect	6.2	1.6	59	70	Active	Dose-dependent effect	Active	Non-Toxic	Non-Toxic	Non-Toxic	Non-Toxic	Non-Toxic	Non-Toxic	Tde	Tde

More lines, main results first:

inhibition [1]	inhibition [2]	inhibition [3]	Activity [14] [%]	Activity [15] [%]	Activity [16] [%]	Activity [17] [%]	inhibition [18]	Structure (SMILES)	inhibition (Mus musculus [4])	inhibition (Mus musculus [5])	Activity [6]	Activity [7]	Activity [8]	Activity [9]	Activity [10]	Activity [11]	inhibition (Mus musculus [12])	inhibition (Mus musculus [13])
Active	Active	Dose-dependent effect	–	–	–	–	–	O=C(c1ccc(Cl)c(Cl)c1)c1no[n+]([O-])c1C(=O)c1ccc(Cl)c(Cl)c1	Dose-dependent effect	Active	Non-Toxic	Non-Toxic	Non-Toxic	Non-Toxic	Non-Toxic	Non-Toxic	Tde	Tde
Active	Active	Dose-dependent effect	–	–	–	–	–	CC(C)(C)C(=O)c1no[n+]([O-])c1C(=O)C(C)(C)C	Dose-dependent effect	Active	Non-Toxic	Non-Toxic	Non-Toxic	Non-Toxic	Non-Toxic	Non-Toxic	Tde	Tde
